Source: patent US8263151B2, “Peracid and 2-hydroxy organic acid compositions and methods for treating produce” (Fresh Express, Incorporated, priority 2008, dated 2012)

Key:
[1] = electron-Volts; cited from earlier work
E. coli K12 = test: Attached cells challenge test on leaves (Example 1); format: cell-based; conditions: PAA 0 ppm
Listeria innocua = test: as above; format: cell-based; conditions: PAA 0 ppm
[2] = tested on: indigenous microorganisms (Aerobic Plate Counts); format: cell-based

For [O][Cl+][O-] [Chlorine Dioxide], the “Oxidation Capacity” value [1] is listed as 1.57 eV.

With CC(O)C(=O)O (stereo not drawn) [LA, lactic acid] the “log reduction of attached cells (quantity not given)” value (shortened to “log reduction … (quantity not given)”) (E. coli K12; Romaine, LA 0.6%) was 0.24, the “log reduction … (quantity not given)” value (E. coli K12; Romaine, LA 0.9%) was 0.37 and the “log reduction … (quantity not given)” value (E. coli K12; Spinach, LA 0.6%) was 0.09. For the same molecule, the “log reduction … (quantity not given)” value (E. coli K12; Spinach, LA 0.9%) was 0.42, the “log reduction … (quantity not given)” value (E. coli K12; Spinach, LA 1.2%) was 0.81 and the “log reduction … (quantity not given)” value (Listeria innocua; Romaine, LA 0.6%) was 1.1. For the same molecule, the “log reduction … (quantity not given)” value (Listeria innocua; Romaine, LA 0.9%) was 1.4, the “log reduction … (quantity not given)” value (Listeria innocua; Romaine, LA 1.2%) was 1.5 and the “log reduction … (quantity not given)” value (Listeria innocua; Spinach, LA 0.6%) was 0.1. The “log reduction … (quantity not given)” value (Listeria innocua; Spinach, LA 0.9%) was 0.2 and the “log reduction … (quantity not given)” value (Listeria innocua; Spinach, LA 1.2%) was 0.2.

For O=[O+][O-] [Ozone], the “Oxidation Capacity” value [1] is listed as 2.07 eV.

In the case of CC(=O)OO [PAA, peroxyacetic acid], the “Log Reduction of Aerobic Plate Counts vs untreated” value [2] is given as 0.7 Log cfu/g and the “Oxidation Capacity” value [1] is given as 1.81 eV.
